Results as given in BindingDB's records for doi:10.1021/jm049864b (Boehringer Ingelheim (Canada), 2004).
Where a SMILES comes first, the peptide text is derived from it. [ ]: non-standard residue; d: D form. Nva = CCC[C@H](N)C(=O)O

Target: T1, Genome polyprotein [1027-1206,R1052K]/[1678-1691] (Hepatitis C virus genotype 1b (isolate Japanese), UniProt P26662+Q9WMX2, R1052K)
T1 construct: 1027-1206; 1678-1691
Test: HCV Protease Inhibition Assay
Conditions: pH 7.5; 23 °C

T1 sequence (Q9WMX2 1027-1206, looked up, stated change not applied, other chains not shown): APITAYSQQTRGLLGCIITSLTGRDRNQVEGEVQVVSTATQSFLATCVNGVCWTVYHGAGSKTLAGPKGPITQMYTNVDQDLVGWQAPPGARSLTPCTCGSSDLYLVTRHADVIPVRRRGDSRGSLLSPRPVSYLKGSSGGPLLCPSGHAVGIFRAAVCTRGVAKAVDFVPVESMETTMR

Structure (SMILES): CCC[C@H](NC(=O)[C@@H]1CCCN1C(=O)[C@@H](NC(=O)[C@@H](NC(=O)[C@H](CC(=O)O)NC(=O)[C@H](CC(=O)O)NC(C)=O)[C@@H](C)CC)C(C)C)C(=O)O [(2S)-2-{[(2S)-1-[(2S)-2-[(2S)-2-[(3S)-3-[(3S)-3-acetamido-3-formamidopropanoic acid]-3-formamidopropanoic acid]-3-methylpentanamido]-3-methylbutanoyl]pyrrolidin-2-yl]formamido}pentanoic acid] (Ac-DDIVP[Nva]-OH)
- IC50: 150 µM
